Data on six compounds can be found in US8999419B2, “Enhancement of potato tuber sprouting inhibitors using various combinations of agents” (Washington State University, priority 2010, dated 2015).

Assay [1] concerns 'Ranger Russet' tubers. As to the kind of experiment: Days to average sprout length of 10 mm, 3-decen-2-one followed by CIPC. In kind it is in vivo, potato. As for the experimental part:
The study used CIPC to extend the sprout-free period following an application of 3-decen-2-one or 2-decanone after sprouting occurs. Protocol.
(§1) This study, as described, used 3-decen-2-one (3D2). The study was duplicated as described with 2-decanone in place of 3D2. Tubers were stored at 9° C. until they emerged from dormancy (when 75% of the sample tubers are peeping, and the longest sprouts are no longer than 4 mm). At this time, 3-decen-2-one was applied at 0.75, 0.50, or 0.25 mmol/kg to ‘burn off’ growing sprouts. Each of these treatments was followed by applications of 1, 0.73, 0.47 or 0.20% a.i. of CIPC EC. The label rate of CIPC EC is 1% a.i. and results in a 10 mg/kg fresh wt application when applied as directed. Sprout measurements were obtained every two weeks. The length of the longest sprout on each tuber was recorded. The average length of the longest sprout was plotted over time for each treatment combination. The days to 10 mm were estimated from the second linear regression line of each element. Positive control treatments included the three rates of 3D2 alone and four post-sprouting concentrations of CIPC alone. The standard control treatment consisted of non-treated tubers.

Another assay relates to Russet Burbank tubers. As to the kind of experiment: Sprout fresh weight after 24 h chamber treatment with 3N2 and 2-nonanone mixtures. The format is in vivo, potato. As to conditions: treated 24 h, 21 days at 22° C. On the procedure: FIG. 1. Effects of 3-nonen-2-one (3N2) in various combinations with 2-nonanone on sprouting of Russet Burbank tubers. The compounds were applied as described in Example 1. Tubers were treated for 24 h, removed from treatment chambers, and placed at 22° C. to sprout for 3 weeks. Sprout fresh weight is expressed as a percentage of control (non-treated), which were 100% sprouted.
The objective of this study was to determine the efficacy of mixtures of 3N2 and its metabolite, 2-nonanone, on sprout inhibition. Potato tubers were treated for 24 h in a closed chamber. The chemicals were volatilized from filter paper inside the chamber. Treatment was with 0 to 0.75 mmol/kg of 3N2 combined factorially with 0 to 0.75 mmol/kg of 2-nonanone. The treated tubers were placed at 22° C. and sprout fresh weights were measured 21 days after treatment. Sprout growth from tubers treated with 0.5 and 0.75 mmol/kg 2-nonanone averaged 58% of non-treated tubers, compared with 9% for […] applied alone (FIG. 1).

The subject of assay [2] is Russet Burbank potato tubers. As to the kind of experiment: Sprout-free interval after CIPC and trans-2-nonenal, alone or in sequence. The format is in vivo. The following applies: CIPC 20 mg/kg; T2N 0.75 mmol/kg; applied at 151 DAH; tubers stored at 9° C. On the procedure: FIGS. 2A and B. Treatment with combination of T2N and CIPC. A, sprout growth in “Russet Burbank” tubers treated as indicated with CIPC, trans-2-nonenal, or trans-2-nonenal and CIPC in sequence; fresh weight of sprouts (g/tuber) at the indicated time points. CIPC, 20 mg/kg; T2N, 0.75 mmol/kg; B, photo of tubers.
Following the emergence of Russet Burbank potato tubers from dormancy, CIPC and trans-2-nonenal were applied either alone or sequentially as indicated in FIG. 2A. All treatments were applied at 151 days after harvest (DAH). Sprout control was considered to end when one third of the tubers in the sample produced a sprout mass of greater than 50 mg/tuber or when the mean of the total sample exceeded 1 g/tuber. When both CIPC and trans-2-nonenal were used, the sprout-free interval of the tubers stored at 9° C. […] In this study, the application of CIPC was unconventional in that it occurred when tubers were beginning to sprout, as opposed to the window between wound healing and sprouting. CIPC provided additional sprout control on tubers whose actively growing sprouts were initially terminated by trans-2-nonenal, i.e. when used in combination with trans-2-nonenal. Trans-2-nonenal thus expands the window of opportunity for application of CIPC and this invention can therefore be useful to reduce the application rate and residues of CIPC.

Assay [3] concerns 'Ranger Russet' tubers. In words: Days to average sprout length of 10 mm, 2-decanone followed by CIPC. In kind it is in vivo, potato. On the procedure:
as §1

The mark [4] stands for this setting: 116 mg kg-1 rate, no subsequent treatment with CIPC.

As for `CCCCCCC=CC(C)=O` [3D2, 3-decen-2-one], in the assay on 'Ranger Russet' tubers [1] (0.25 mmol/kg rate), the “Control before sprouting re-occurred” value was “approximately 1 month”. Besides, the “Days of control following application” value in the assay with 'Ranger Russet' tubers [1] (setting [4]) worked out at 58 days. The results for the “Days to 10 mm Actual” value in the assay with 'Ranger Russet' tubers [1] (3D2 39 mg kg-1 fresh wt alone (CIPC 0)), in the assay with 'Ranger Russet' tubers [1] (3D2 77 mg kg-1 fresh wt alone (CIPC 0)) and in the assay on 'Ranger Russet' tubers [1] (3D2 116 mg kg-1 fresh wt alone (CIPC 0)) were 38 days, 40 days and 57 days, respectively.
As for `CCCCCCCC(C)=O` [2-nonanone], the “Sprout growth (fresh weight) as percentage of non-treated tubers” value in the assay with Russet Burbank tubers (0.5 and 0.75 mmol/kg 2-nonanone, averaged) came out at 58%.
On to `CC(C)OC(=O)Nc1cccc(Cl)c1` [CIPC, chlorpropham, reference compound], for which the Sprout-free interval in assay [2] was 124 days. Moreover, the “Days to 10 mm Actual” value in the assay on 'Ranger Russet' tubers [1] (CIPC 2.0 mg kg-1 fresh wt alone (3D2 0), Table 1 study) is given as 51 days; in the assay with 'Ranger Russet' tubers [1] (CIPC 4.7 mg kg-1 fresh wt alone (3D2 0), Table 1 study), 80 days; with 'Ranger Russet' tubers [1] (CIPC 7.3 mg kg-1 fresh wt alone (3D2 0), Table 1 study), 99 days; in the assay on 'Ranger Russet' tubers [1] (CIPC 10 mg kg-1 fresh wt alone (3D2 0), Table 1 study), 95 days; in the assay on 'Ranger Russet' tubers [3] (CIPC 2.0 mg kg-1 fresh wt alone (2-decanone 0), Table 2 study), 85 days; with 'Ranger Russet' tubers [3] (CIPC 4.7 mg kg-1 fresh wt alone (2-decanone 0), Table 2 study), 113 days. In addition, the “Days to 10 mm Actual” value in the assay on 'Ranger Russet' tubers [3] (CIPC 7.3 mg kg-1 fresh wt alone (2-decanone 0), Table 2 study) stood at 110 days; in the assay on 'Ranger Russet' tubers [3] (CIPC 10 mg kg-1 fresh wt alone (2-decanone 0), Table 2 study) it was 112 days.
In the case of `CCCCCCCCC(C)=O` [2-decanone], in the assay on 'Ranger Russet' tubers [3] (0.25 mmol/kg rate), the “Control before sprouting re-occurred” value is recorded as “approximately 1 month”. In the assay with 'Ranger Russet' tubers [3] (setting [4]), the “Days of control following application” value is 50 days. Besides, the “Days to 10 mm Actual” value with 'Ranger Russet' tubers [3] (2-decanone 39 mg kg-1 fresh wt alone (CIPC 0)) is recorded as 34 days; in the assay on 'Ranger Russet' tubers [3] (2-decanone 77 mg kg-1 fresh wt alone (CIPC 0)), 42 days; in the assay with 'Ranger Russet' tubers [3] (2-decanone 116 mg kg-1 fresh wt alone (CIPC 0)), 49 days.
As to `CCCCCC=CC(C)=O` [3N2, 3-nonen-2-one], the “Sprout growth (fresh weight) as percentage of non-treated tubers” value with Russet Burbank tubers (0.75% 3N2 applied alone) came out at 9%.
On to `CCCCCC/C=C/C=O` [trans-2-nonenal], for which the Sprout-free interval in assay [2] turned out to be 155 days.
